Source: patent US7381537B2, “Use of inhibitors of glutaminyl cyclases for treatment and prevention of disease” (Probiodrug AG, priority 2003, dated 2008)
Entries after “also recorded” stand apart in the source; their conditions may differ. Ends that are not written are not given here.

What was measured:
[1] = Solubility of substrates in aqueous solution
[2] = target: T1, QC (Homo sapiens, UniProt Q16769); experiment: Reactivation of inactivated human QC with metal ions; type: biochemical; parameters: The cDNA of the mature QC starting with codon 38 was fused in frame with the plasmid encoded 6×histidine tag; 6xHis; made in house; host or cells: Pichia pastoris X33 (pPICZαB); also E. coli M15 (pQE-31); conditions: 0.5 mM metal ion in presence of 0.5 mM EDTA
T1 sequence (Q16769 29-361): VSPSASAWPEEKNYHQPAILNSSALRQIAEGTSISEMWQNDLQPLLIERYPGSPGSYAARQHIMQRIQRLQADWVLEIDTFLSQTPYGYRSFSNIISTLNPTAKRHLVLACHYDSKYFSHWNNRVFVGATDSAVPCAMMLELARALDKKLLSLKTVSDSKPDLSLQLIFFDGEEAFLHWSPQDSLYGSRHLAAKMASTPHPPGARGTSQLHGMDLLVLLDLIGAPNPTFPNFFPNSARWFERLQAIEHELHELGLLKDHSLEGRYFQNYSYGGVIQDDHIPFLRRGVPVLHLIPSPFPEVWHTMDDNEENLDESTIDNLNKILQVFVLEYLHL
Protocol: Subsequently, the enzyme was subjected to dialysis against 50 mM Bis-Tris, pH 6.8, containing 1.0 mM EDTA. Reactivation of the enzymes was achieved by incubation of the inactivated enzyme sample with metal ions at a concentration of 0.5 mM, in presence of 0.5 mM EDTA in order to avoid an unspecific reactivation by traces of metal ions present in buffer solutions. Controls are given by enzyme samples that were not inactivated, but also dialyzed against EDTA solution as the inactivated enzyme (+EDTA) and enzyme samples that were dialyzed against buffer solutions without added EDTA (−EDTA).

[3] = system: Glutaminyl cyclase present in the homogenate of porcine pituitary; experiment: Formation of [pGlu^3]Aβ3-11a by QC in porcine pituitary homogenate, MALDI-TOF; type: biochemical; conditions: 2 mM 1,10-phenanthroline
Protocol: (§1) Matrix-assisted laser desorption/ionization mass spectrometry was carried out using the Hewlett-Packard G2025 LD-TOF System with a linear time of flight analyzer. […] Samples (5 μl) were mixed with equal volumes of the matrix solution. For matrix solution we used DHAP/DAHC, prepared by solving 30 mg 2′,6′-dihydroxyacetophenone (Aldrich) and 44 mg diammonium hydrogen citrate (Fluka) in 1 ml acetonitrile/0.1% TFA in water (1/1, v/v). A small volume (=1 μl) of the matrix-analyte-mixture was transferred to a probe tip and immediately evaporated in a vacuum chamber (Hewlett-Packard G2024A sample prep accessory) to ensure rapid and homogeneous sample crystallization.
In case of Aβ3-21a, the assays contained 1% DMSO. At different times, samples were removed from the assay tube, peptides extracted using ZipTips (Millipore) according to the manufacturer's recommendations, mixed with matrix solution (1:1 v/v) and subsequently the mass spectra recorded.

[4] = system: DP IV and QC; experiment: Consecutive catalysis of DP IV and QC, crude porcine pituitary homogenate with added DPIV, MALDI-TOF; type: biochemical
Protocol: as §1

[5] = system: mammalian QC; conditions: Busby et al. 1987; cited from earlier work
[6] = target: T1, QC; experiment: Inhibition and inactivation of human QC by chelators; type: biochemical; parameters: The cDNA of the mature QC starting with codon 38 was fused in frame with the plasmid encoded 6×histidine tag; 6xHis; made in house; host or cells: Pichia pastoris X33 (pPICZαB); also E. coli M15 (pQE-31)

Molecule: QFRHDSGYE-NH2 [[Gln^3]Aβ3-11a]
- solubility in aqueous solution [1]: better

Molecule: O=S(=O)([O-])[O-].[Zn+2] [ZnSO4]
- restoration of QC activity after inactivation [2]: Near-total restoration

Molecule: c1cnc2c(c1)ccc1cccnc12 [1,10-phenanthroline]
- inhibition of formation of [pGlu^3]Aβ3-11a from [Gln^3]Aβ3-11a [3]: inhibited; also recorded: inhibition
- [pGlu^3]Aβ3-11a formation from [Gln^3]Aβ1-11a in presence of catalytically active DP IV and QC [4]: not formed; also recorded: inhibition
- inhibition of a mammalian QC [5]: Inhibition
- inhibition of human QC catalyzed substrate cyclization ([6]; competitive and time-dependent for the chelators): inhibited; also recorded: reduced enzymatic activity
- inactivation of human QC after extensive dialysis ([6]; dialysis against 5 mM): almost completely inactivated
